Among the data in patent US12595234B2, “Bioactive benzocycloheptene analogues from himachalenes and its applications” (Council of Scientific and Industrial Research, priority 2020, dated 2026) are IC50 values, retold here.

In the assay the target is MK2 (Homo sapiens, UniProt P49137). Put plainly: Inhibition in solution assay of kinase MK2. Format: biochemical. The conditions noted are these: IC50 extrapolated from the dose dependent inhibition graphs (FIG. 6).

pIC50: −log10 of the molar value.

Sequence of MK2 (P49137 whole entry, species assumed): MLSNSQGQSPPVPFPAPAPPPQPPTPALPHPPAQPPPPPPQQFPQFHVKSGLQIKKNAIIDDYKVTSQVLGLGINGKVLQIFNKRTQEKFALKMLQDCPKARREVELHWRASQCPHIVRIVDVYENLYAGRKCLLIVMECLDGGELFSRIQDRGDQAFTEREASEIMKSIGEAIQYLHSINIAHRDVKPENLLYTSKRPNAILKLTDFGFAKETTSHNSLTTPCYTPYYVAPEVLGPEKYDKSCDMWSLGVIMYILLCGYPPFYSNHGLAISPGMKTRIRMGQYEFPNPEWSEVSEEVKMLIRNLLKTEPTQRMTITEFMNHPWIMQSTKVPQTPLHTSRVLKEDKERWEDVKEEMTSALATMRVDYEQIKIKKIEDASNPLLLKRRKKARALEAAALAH
From the text: Determination of affinity of MK2 inhibitors (IC50) through inhibition in solution assay of kinase MK2 by various compounds of general formula I-VI

With `Cc1ccc(-c2ccc3c(ccc4sc5c(c43)NC[C@@H](C)NC5=O)n2)cn1` [PF 3644022], the pIC50 is 6.23.

By pIC50 is commonly meant −log10 of the IC50, conventionally taken in molar units.
